Activity calls are given as the source filed them. The rule behind the calls is not given here.
Key:
[1] = test system: Influenza A virus; test: Antiviral activity against Influenza A virus A2 Jap/305 infected in mouse; format: functional, organism-based
[2] = test system: Human alphaherpesvirus 1; test: In vitro antiviral activity against Herpesvirus hominis type 1 infected in African green monkey Vero cells assessed as log reduction of virus titer by cytopathologic assay (reference value: 5); format: functional
[3] = test system: Mus musculus; test: Induction of interferon induction in sc dosed mouse serum; format: functional, organism-based
[4] = test system: Encephalomyocarditis virus; test: Antiviral activity against Encephalomyocarditis virus infected in CF-1 mouse assessed as host survival time ratio at 250 mg/kg, po administered via gavage as single dose at 22 to 28 hrs before virus inoculation; format: functional
[5] = test system: Vaccinia virus; test: Antiviral activity against Vaccinia virus infected in mouse; format: functional, organism-based; settings: Orthopoxvirus vaccinia
[6] = test system: Encephalomyocarditis virus; test: Antiviral activity against Encephalomyocarditis virus infected in CF-1 mouse assessed as host survival time ratio at 250 mg/kg, sc administered 28, 22, 2 hrs before and 2 hrs after virus inoculation; format: functional; settings: route subcutaneous
[7] = test system: Semliki Forest virus; test: Antiviral activity against Semliki forest virus infected in mouse; format: functional, organism-based
[8] = test system: Human alphaherpesvirus 1; test: In vivo antiviral activity against Herpesvirus hominis type 1 infected in po dosed white mouse assessed as suppression of raised, blister-like lesions; format: functional, organism-based
[9] = test system: Encephalomyocarditis virus; test: Antiviral activity against Encephalomyocarditis virus infected in CF-1 mouse assessed as host survival time ratio at 10 mg/kg, sc administered 28, 22, 2 hrs before and 2 hrs after virus inoculation; format: functional; settings: route subcutaneous
[10] = test system: Mus musculus; test: Induction of interferon induction in po dosed mouse serum; format: functional, organism-based
[11] = test system: Human alphaherpesvirus 1; test: (§1) In vivo antiviral activity against Herpesvirus hominis type 1 infected in hairless mouse assessed as decrease in lesion score administered topically at 2, 4 and 6 hrs after virus inoculation followed by continuous treatment daily for 4 days four times a day at 2 hrs interval measured on 8th day post-infection; format: functional, organism-based
[12] = test system: Encephalomyocarditis virus; test: Antiviral activity against Encephalomyocarditis virus infected in CF-1 mouse assessed as host survival time ratio at 50 mg/kg, sc administered 28, 22, 2 hrs before and 2 hrs after virus inoculation; format: functional; settings: route subcutaneous
[13] = test system: Influenza A virus; test: Antiviral activity against Influenza A virus A0 (Pr8) infected in mouse; format: functional, organism-based
[14] = test system: Human alphaherpesvirus 1; test: as §1, with “suppression of ulcerated zoster-like lesions development” for “decrease in lesion score”; format: functional, organism-based
[15] = test system: Venezuelan equine encephalitis virus; test: Antiviral activity against Venezuelan equine encephalitis virus infected in po dosed monkey assessed as reduction in viremia; format: functional, organism-based
[16] = test system: Encephalomyocarditis virus; test: Antiviral activity against Encephalomyocarditis virus infected in CF-1 mouse assessed as host survival time ratio at 50 mg/kg, po administered via gavage at 28, 22, 2 hrs before and 2 hrs after virus inoculation; format: functional
[17] = test system: Encephalomyocarditis virus; test: Antiviral activity against Encephalomyocarditis virus infected in CF-1 mouse assessed as host survival time ratio at 250 mg/kg, sc administered as single dose at 22 hrs before virus inoculation; format: functional; settings: route subcutaneous

Row | Structure (SMILES) | Activity [1] | log(activity) [2] | Activity [3] | Ratio [4] | Activity [5] | Ratio [6] | Activity [7] | inhibition [8] | Ratio [9] | Activity [10] | inhibition [11] | Ratio [12] | Activity [13] | inhibition [14] | inhibition [15] | Ratio [16] | Ratio [17]
1 | CN(C)CC(=O)c1ccc2sc3ccc(C(=O)CN(C)C)cc3c2c1.Cl | Active | 2.5 | Active | 2.29 | Active | 2.29 | Active | inactive | 1.1 | Active | Active | 2.29 | Active | inactive | Active | 1.75 | 
2 | CCN(CC)CCCOc1ccc2oc3ccc(OCCCN(CC)CC)cc3c2c1 |  |  |  | 0.92 |  |  |  |  | 0.98 |  |  | 0.88 |  |  |  | 0.98 | 1.47
3 | CN(C)CC(=O)c1ccc2oc3ccc(C(=O)CN(C)C)cc3c2c1.Cl |  | 2.5 | Active | 2.2 | Active | 2 | Active | inactive | 1.13 | Active | Active | 1.64 |  | inactive | Active | 1.8 | 
4 | CN(C)CCCC(=O)c1ccc2sc3ccc(C(=O)CCCN(C)C)cc3c2c1.Cl |  |  |  | 0.95 |  | 1.09 |  |  | 1.09 |  |  | 1.66 |  |  |  | 1 | 
5 | Cl.O=C(CCCN1CCC(Cc2ccccc2)CC1)c1ccc2oc3ccc(C(=O)CCCN4CCC(Cc5ccccc5)CC4)cc3c2c1 |  |  |  | 0.98 |  |  |  |  | 1.27 |  |  | 1.7 |  |  |  | 1.07 | 1.82
6 | CC(C)N(CCOc1ccc2oc3ccc(OCCN(C(C)C)C(C)C)cc3c2c1)C(C)C |  |  |  | 0.88 |  | 1.14 |  |  | 0.88 |  |  | 1.24 |  |  |  | 0.96 | 
7 | CN(C)CCOc1ccc2sc3ccc(OCCN(C)C)cc3c2c1.Cl |  |  |  | 1.06 |  | 0.91 |  |  | 1.09 |  |  | 1.13 |  |  |  | 0.98 | 
8 | Cl.O=C(CN1CCCCC1)c1ccc2oc3ccc(C(=O)CN4CCCCC4)cc3c2c1 |  |  |  | 1.41 |  | 2.41 |  |  | 1.11 |  |  | 1.12 |  |  |  | 0.87 | 
9 | Cl.O=C(OCCCN1CCCCC1)c1ccc2oc3ccc(C(=O)OCCCN4CCCCC4)cc3c2c1 |  |  |  | 1.02 |  | 0.91 |  |  | 1.11 |  |  | 1.22 |  |  |  | 0.96 | 
10 | CCn1c2ccc(C(=O)CCCN3CCCCC3)cc2c2cc(C(=O)CCCN3CCCCC3)ccc21.Cl |  |  |  | 1.2 |  | 0.56 |  |  | 1.68 |  |  | 1.58 |  |  |  | 1.09 | 

Reference: ChEMBL document CHEMBL3272338, “Bis-basic-substituted polycyclic aromatic compounds. A new class of antiviral agents. 8. Bis-basic derivatives of carbazole, dibenzofuran, and dibenzothiophene” (1977)
